Laboratory results: US7816134B2, “Method of extensive culture of antigen-specific cytotoxic T cells” (Takara Bio Inc., priority 2000, dated 2010)
Read-outs that look alike come from different tables or passages of the source.

Key:
[1] = system: anti-influenza virus memory CTLs (FluMPA2.1); format: cell-based, human
[2] = system: HLA-A2.1-having EBV transformed B-cells (221A2.1); test: Specific cytotoxic activity of MAGE3-specific CTLs after expansion; format: cell-based, human; details: for Cytotoxic Activity (%): sample induction +, expansion +
From the text: (§1) CTLs prepared in item (1) of Example 2-1 were washed with 5HRPMI, and then made into a suspension having a concentration of 5×10^4 cells/ml. On the other hand, allogenic PBMCs not having HLA-A24 and HLA-A2.1 which were collected in the same manner as in item (1) of Example 1-1 were subjected to X-ray irradiation (3300R), and the cells were washed with the medium and then made into a suspension having a concentration of 5×10^6 cells/ml. These CTLs (2.5×10^4 cells) and allogenic PBMCs (1.25×10^7 cells) were suspended in 10 ml of 5HRPMI, and anti-CD3 antibody (manufactured by Janssen-Kyowa) was further added thereto so as to give a final concentration of 50 ng/ml. The mixture was placed into a flask of 12.5 cm^2 (manufactured by Falcon), and the cells were cultured in a wet-type CO2 incubator at 37° C. for 14 days. […] The expansion ratio (× times ratio) was calculated by dividing the cell count after the expansion by the cell count before the expansion.

[3] = system: anti-tumor-associated antigen(MAGE3)-specific CTLs; test: Expansion ratio of MAGE3-specific CTLs; format: cell-based, human; details: sample 10 μg/ml: induction +, 14 days
From the text: as §1

[4] = system: HLA-A2.1-having EBV transformed B-cells (221A2.1); details: for Cytotoxic Activity (%) E/T Ratio 3 / Cytotoxic Activity (%) E/T Ratio 10 / Cytotoxic Activity (%) E/T Ratio 1: FluMPA2.1
[5] = system: HLA-A2.1-having EBV transformed B-cells (221A2.1); details: FluMPA2.1
[6] = system: HLA-A2.1-having EBV transformed B-cells (221A2.1); test: Cytotoxic activity of anti-tumor-associated antigen(MAGE3)-specific CTLs on the thirty-fifth day after the initiation of induction; details: 10 μg/ml
[7] = Example 2-4, sample 10 μg/ml during CTL induction +, during expansion +
[8] = Example 2-6, sample during CTL induction −, during expansion + (10 μg/ml)
[9] = Example 1-3, sample 10 μg/ml during CTL induction +, during culture with IL-2 +, peptide addition +
[10] = Example 1-3, sample 10 μg/ml during CTL induction +, during culture with IL-2 +, peptide addition −
[11] = Example 1-5, sample during CTL induction −, during culture with IL-2 + (10 μg/ml), peptide addition +
[12] = Example 1-5, sample during CTL induction −, during culture with IL-2 + (10 μg/ml), peptide addition −
[13] = sample 10 μg/ml only during continuous culture
[14] = Example 2-4, sample 10 μg/ml during CTL induction +, during expansion +, peptide addition +
[15] = Example 2-4, sample 10 μg/ml during CTL induction +, during expansion +, peptide addition −
[16] = Example 2-6, sample during CTL induction −, during expansion + (10 μg/ml), peptide addition +
[17] = Example 2-6, sample during CTL induction −, during expansion + (10 μg/ml), peptide addition −
[18] = Example 2-7, sample 10 μg/ml during CTL induction +, during expansion +, peptide addition +
[19] = Example 2-7, sample 10 μg/ml during CTL induction +, during expansion +, peptide addition −
[20] = Example 2-7, sample 10 μg/ml during CTL induction +, during expansion −, peptide addition +
[21] = Example 2-7, sample 10 μg/ml during CTL induction +, during expansion −, peptide addition −

Ardeparin sodium [L. M. W. Heparin, reference compound]
Expansion Ratio [1, 7]: × 240
Expansion Ratio [1, 8]: × 353
Expansion Ratio ([1]; Example 2-7, sample 10 μg/ml during CTL induction +, during expansion +): × 243
Expansion Ratio ([1]; Example 2-7, sample 10 μg/ml during CTL induction +, during expansion −): × 253
cytotoxic activity after expansion for 14 days (in words) ([2]; MAGE3-specific CTLs, sample 10 μg/ml during CTL induction and during expansion): specific, high cytotoxic activity
Cytotoxic Activity (%) ([2]; peptide addition +, E/T ratio 3): 65.3%
Cytotoxic Activity (%) ([2]; peptide addition +, E/T ratio 9): 104.8%
Cytotoxic Activity (%) ([2]; peptide addition −, E/T ratio 3): 2.6%
Cytotoxic Activity (%) ([2]; peptide addition −, E/T ratio 9): 3.7%
Expansion Ratio [3]: × 433
Cytotoxic Activity (%) E/T Ratio 3 [4, 9]: 49.0%
Cytotoxic Activity (%) E/T Ratio 10 [4, 9]: 71.7%
Cytotoxic Activity (%) E/T Ratio 3 [4, 10]: 11.7%
Cytotoxic Activity (%) E/T Ratio 10 [4, 10]: 14.2%
Cytotoxic Activity (%) E/T Ratio 10 [4, 11]: 18.3%
Cytotoxic Activity (%) E/T Ratio 10 [4, 12]: 0%
cytotoxic activity after continuous culture (in words) ([4]; sample 10 μg/ml during CTL induction and during continuous culture, 10 to 14 days): continuous culture of CTLs having an antigen-specific cytotoxic activity can be carried out
cytotoxic activity after continuous culture (in words) [4, 13]: maintaining an antigen-specific cytotoxic activity
Cytotoxic Activity (%) E/T Ratio 3 [5, 14]: 56.4%
Cytotoxic Activity (%) E/T Ratio 10 [5, 14]: 92.9%
Cytotoxic Activity (%) E/T Ratio 3 [5, 15]: 5.2%
Cytotoxic Activity (%) E/T Ratio 10 [5, 15]: 19.6%
Cytotoxic Activity (%) E/T Ratio 1 [5, 16]: 11.3%
Cytotoxic Activity (%) E/T Ratio 3 [5, 16]: 22.2%
Cytotoxic Activity (%) E/T Ratio 10 [5, 16]: 43.9%
Cytotoxic Activity (%) E/T Ratio 30 [5, 16]: 71.2%
Cytotoxic Activity (%) E/T Ratio 1 [5, 17]: 1.4%
Cytotoxic Activity (%) E/T Ratio 3 [5, 17]: 0%
Cytotoxic Activity (%) E/T Ratio 10 [5, 17]: 0.6%
Cytotoxic Activity (%) E/T Ratio 30 [5, 17]: 2.5%
Cytotoxic Activity (%) E/T Ratio 1 [5, 18]: 16.3%
Cytotoxic Activity (%) E/T Ratio 3 [5, 18]: 22.7%
Cytotoxic Activity (%) E/T Ratio 10 [5, 18]: 43.9%
Cytotoxic Activity (%) E/T Ratio 30 [5, 18]: 72.8%
Cytotoxic Activity (%) E/T Ratio 1 [5, 19]: 5.6%
Cytotoxic Activity (%) E/T Ratio 3 [5, 19]: 2.5%
Cytotoxic Activity (%) E/T Ratio 10 [5, 19]: 1.1%
Cytotoxic Activity (%) E/T Ratio 30 [5, 19]: 0.9%
Cytotoxic Activity (%) E/T Ratio 1 [5, 20]: 12.5%
Cytotoxic Activity (%) E/T Ratio 3 [5, 20]: 26.9%
Cytotoxic Activity (%) E/T Ratio 10 [5, 20]: 57.8%
Cytotoxic Activity (%) E/T Ratio 30 [5, 20]: 83.7%
Cytotoxic Activity (%) E/T Ratio 1 [5, 21]: 5.2%
Cytotoxic Activity (%) E/T Ratio 3 [5, 21]: 4.5%
Cytotoxic Activity (%) E/T Ratio 10 [5, 21]: 6.6%
Cytotoxic Activity (%) E/T Ratio 30 [5, 21]: 7.0%
difference in the cytotoxic activity by the presence or absence of the addition during the induction [6]: almost no difference

swellable alginic acid
Expansion Ratio [1, 7]: × 176
Expansion Ratio [1, 8]: × 378
Cytotoxic Activity (%) E/T Ratio 1 [4, 9]: 39.8%
Cytotoxic Activity (%) E/T Ratio 3 [4, 9]: 75.3%
Cytotoxic Activity (%) E/T Ratio 10 [4, 9]: 86.9%
Cytotoxic Activity (%) E/T Ratio 1 [4, 10]: 12.5%
Cytotoxic Activity (%) E/T Ratio 3 [4, 10]: 26.5%
Cytotoxic Activity (%) E/T Ratio 10 [4, 10]: 22.2%
Cytotoxic Activity (%) E/T Ratio 1 [4, 11]: 12.6%
Cytotoxic Activity (%) E/T Ratio 3 [4, 11]: 18.7%
Cytotoxic Activity (%) E/T Ratio 10 [4, 11]: 35.6%
Cytotoxic Activity (%) E/T Ratio 1 [4, 12]: 3.3%
Cytotoxic Activity (%) E/T Ratio 3 [4, 12]: 1.3%
Cytotoxic Activity (%) E/T Ratio 10 [4, 12]: 8.8%
cytotoxic activity after continuous culture (in words) [4, 13]: maintaining an antigen-specific cytotoxic activity
Cytotoxic Activity (%) E/T Ratio 3 [5, 14]: 65.0%
Cytotoxic Activity (%) E/T Ratio 10 [5, 14]: 101.6%
Cytotoxic Activity (%) E/T Ratio 3 [5, 15]: 14.3%
Cytotoxic Activity (%) E/T Ratio 10 [5, 15]: 21.3%
Cytotoxic Activity (%) E/T Ratio 1 [5, 16]: 15.4%
Cytotoxic Activity (%) E/T Ratio 3 [5, 16]: 22.0%
Cytotoxic Activity (%) E/T Ratio 10 [5, 16]: 47.8%
Cytotoxic Activity (%) E/T Ratio 30 [5, 16]: 81.7%
Cytotoxic Activity (%) E/T Ratio 1 [5, 17]: 0.1%
Cytotoxic Activity (%) E/T Ratio 3 [5, 17]: 0%
Cytotoxic Activity (%) E/T Ratio 10 [5, 17]: 2.1%
Cytotoxic Activity (%) E/T Ratio 30 [5, 17]: 10.6%
